Measured values reported in patent publication US20080234262A1 (Wyeth, priority 2007, published 2008).
pIC50: −log10 of the molar value.

Columns and labels:
[1] = biological target: PI3K (Homo sapiens, UniProt P42336); assay: Fluorescence polarization assay for PI3K; assay type: biochemical; conditions: PI3Kα; read-out: PI3Kα IC50;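 further: PI3K kinase reaction on PIP2 with ATP, 30-60 min, product sensed by GST-GRP with red probe in fluorescence polarization (mP), controls without enzyme and at zero time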
PI3K, sequence (P42336 whole entry): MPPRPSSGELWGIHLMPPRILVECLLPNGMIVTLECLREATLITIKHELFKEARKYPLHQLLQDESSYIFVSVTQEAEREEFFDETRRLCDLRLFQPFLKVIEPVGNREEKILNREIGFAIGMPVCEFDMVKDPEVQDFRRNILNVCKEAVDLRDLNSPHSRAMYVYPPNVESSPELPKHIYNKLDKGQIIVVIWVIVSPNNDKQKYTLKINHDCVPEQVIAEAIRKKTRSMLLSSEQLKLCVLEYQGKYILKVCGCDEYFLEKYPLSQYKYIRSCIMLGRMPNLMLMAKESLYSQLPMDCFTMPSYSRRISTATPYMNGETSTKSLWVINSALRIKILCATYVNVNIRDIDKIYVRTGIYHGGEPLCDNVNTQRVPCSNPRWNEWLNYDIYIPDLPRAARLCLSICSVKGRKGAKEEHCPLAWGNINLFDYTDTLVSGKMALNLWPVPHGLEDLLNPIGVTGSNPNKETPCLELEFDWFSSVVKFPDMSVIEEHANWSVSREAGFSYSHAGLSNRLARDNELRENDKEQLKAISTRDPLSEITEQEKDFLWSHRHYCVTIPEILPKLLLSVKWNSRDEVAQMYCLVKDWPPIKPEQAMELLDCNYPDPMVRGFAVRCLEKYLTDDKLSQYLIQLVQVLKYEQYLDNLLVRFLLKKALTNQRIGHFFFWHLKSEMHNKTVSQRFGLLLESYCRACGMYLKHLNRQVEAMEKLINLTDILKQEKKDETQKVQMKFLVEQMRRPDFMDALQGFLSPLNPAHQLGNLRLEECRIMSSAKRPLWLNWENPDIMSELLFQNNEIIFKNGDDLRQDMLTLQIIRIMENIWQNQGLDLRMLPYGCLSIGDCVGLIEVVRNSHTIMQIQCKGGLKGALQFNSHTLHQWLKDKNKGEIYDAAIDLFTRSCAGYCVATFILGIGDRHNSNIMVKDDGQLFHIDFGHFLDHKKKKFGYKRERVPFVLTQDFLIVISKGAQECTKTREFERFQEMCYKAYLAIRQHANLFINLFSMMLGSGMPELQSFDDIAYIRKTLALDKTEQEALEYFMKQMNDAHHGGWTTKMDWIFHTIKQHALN
PI3K, sequence (P27986 whole entry partner): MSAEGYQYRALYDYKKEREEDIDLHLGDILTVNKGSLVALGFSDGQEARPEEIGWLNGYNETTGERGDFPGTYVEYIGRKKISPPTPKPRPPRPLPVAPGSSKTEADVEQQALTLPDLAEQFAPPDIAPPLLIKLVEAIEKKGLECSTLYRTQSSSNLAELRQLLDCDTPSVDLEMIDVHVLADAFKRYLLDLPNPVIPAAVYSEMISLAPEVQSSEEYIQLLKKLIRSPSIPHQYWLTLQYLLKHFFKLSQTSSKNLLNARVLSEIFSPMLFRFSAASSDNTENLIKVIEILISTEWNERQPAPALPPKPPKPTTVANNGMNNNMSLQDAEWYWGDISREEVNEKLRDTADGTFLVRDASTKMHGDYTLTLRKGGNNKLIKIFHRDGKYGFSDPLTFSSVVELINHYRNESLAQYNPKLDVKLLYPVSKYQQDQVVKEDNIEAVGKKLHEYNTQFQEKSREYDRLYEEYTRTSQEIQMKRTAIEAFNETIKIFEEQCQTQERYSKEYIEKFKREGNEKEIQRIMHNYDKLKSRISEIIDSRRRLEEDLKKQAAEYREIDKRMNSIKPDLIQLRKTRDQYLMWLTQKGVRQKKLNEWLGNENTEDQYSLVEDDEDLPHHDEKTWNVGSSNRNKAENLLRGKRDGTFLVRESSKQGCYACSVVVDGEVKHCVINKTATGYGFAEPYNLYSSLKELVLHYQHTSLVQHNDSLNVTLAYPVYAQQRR

[2] = tested on: prostate line LNCap; assay: In vitro cell culture growth assay (MTS), LNCap; assay type: cell-based, human; conditions: Homo sapiens, LNCaP, 72 h, LNCap cells, three days after drug treatment;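 further: viable cell density read by absorbance at 490 nm, growth expressed as percent of vehicle-treated cells on the same plate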
[3] = tested on: breast line MDA468; assay: In vitro cell culture growth assay (MTS), MDA468; assay type: cell-based, human; conditions: Homo sapiens, 72 h, MDA468 cells, three days after drug treatment
Method in brief: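 Growth measured as percent of same-plate vehicle control by MTS metabolic dye conversion (A490). Breast MDA468 and prostate LNCap cells, plated a day ahead, were exposed to compounds for 3 days.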

| SMILES | pIC50 [1] | pIC50 [2] | pIC50 [3] |
| --- | --- | --- | --- |
| CNC(=O)Nc1ccc(-c2nc(N3CCOCC3)c3cnn(C4CCN(CC(N)=O)CC4)c3n2)cc1 [Example 332, 2-[4-(6-{4-[(methylcarbamoyl)amino]phenyl}-4-morpholin-4-yl-1H-pyrazolo[3,4-d]pyrimidin-1-yl)piperidin-1-yl]acetamide] | 7.18 | 6.22 | 6.00 |
| CNC(=O)Nc1ccc(-c2nc(N3CCOCC3)c3cnn(C4CCN(C(=O)N5CCN(C)CC5)CC4)c3n2)cc1 [Example 334, 1-methyl-3-[4-(1-{1-[(4-methylpiperazin-1-yl)carbonyl]piperidin-4-yl}-4-morpholin-4-yl-1H-pyrazolo[3,4-d]pyrimidin-6-yl)phenyl]urea] | 7.15 | 6.40 | 6.15 |
| O=C(Nc1ccc(-c2nc(N3CCOCC3)c3cnn(C4CCN(Cc5cccnc5)CC4)c3n2)cc1)Nc1ccccn1 [Example 341, 1-(4-{4-morpholin-4-yl-1-[1-(pyridin-3-ylmethyl)piperidin-4-yl]-1H-pyrazolo[3,4-d]pyrimidin-6-yl}phenyl)-3-pyridin-2-ylurea] | 7.04 | 6.48 | 5.74 |
| O=C(Nc1ccc(-c2nc(N3CCOCC3)c3cnn(C4CCN(C(=O)c5cccnc5)CC4)c3n2)cc1)Nc1ccccn1 [Example 345, 1-(4-{4-morpholin-4-yl-1-[1-(pyridin-3-ylcarbonyl)piperidin-4-yl]-1H-pyrazolo[3,4-d]pyrimidin-6-yl}phenyl)-3-pyridin-2-ylurea] | 6.58 | 7.02 | 6.15 |
| CNCCNC(=O)Nc1ccc(-c2nc(N3CCOCC3)c3cnn(C4CCN(C(=O)c5cccnc5)CC4)c3n2)cc1 [Example 346, 1-[2-(methylamino)ethyl]-3-(4-{4-morpholin-4-yl-1-[1-(pyridin-3-ylcarbonyl)piperidin-4-yl]-1H-pyrazolo[3,4-d]pyrimidin-6-yl}phenyl)urea] | 7.35 | 5.30 | 5.05 |
| CCNC(=O)Nc1ccc(-c2nc(N3CCOCC3)c3cnn(C4CCN(Cc5ccccc5)CC4)c3n2)cc1F [Example 349, 1-{4-[1-(1-benzylpiperidin-4-yl)-4-morpholin-4-yl-1H-pyrazolo[3,4-d]pyrimidin-6-yl]-2-fluorophenyl}-3-ethylurea] | 6.31 | 6.64 | 5.60 |
| CNC(=O)Nc1ccc(-c2nc(N3CCOCC3)c3cnn(C4CCN(Cc5cccnc5)CC4)c3n2)cc1F [Example 350, 1-(2-fluoro-4-{4-morpholin-4-yl-1-[1-(pyridin-3-ylmethyl)piperidin-4-yl]-1H-pyrazolo[3,4-d]pyrimidin-6-yl}phenyl)-3-methylurea] | 6.61 | 7.57 | 6.70 |
| CNC(=O)Nc1ccc(-c2nc(N3CCOCC3)c3cnn(C4CCN(C(=O)c5ccccc5C)CC4)c3n2)cc1 [Example 356, 1-methyl-3-(4-{1-[1-(2-methylbenzoyl)piperidin-4-yl]-4-morpholin-4-yl-1H-pyrazolo[3,4-d]pyrimidin-6-yl}phenyl)urea] | 7.03 | 7.57 | 7.00 |
| CNC(=O)Nc1ccc(-c2nc(N3CCOCC3)c3cnn(C4CCN(C(=O)c5cccc(F)c5)CC4)c3n2)cc1 [Example 357, 1-(4-{1-[1-(3-fluorobenzoyl)piperidin-4-yl]-4-morpholin-4-yl-1H-pyrazolo[3,4-d]pyrimidin-6-yl}phenyl)-3-methylurea] | 7.05 | 7.57 | 7.00 |
| CNC(=O)Nc1ccc(-c2nc(N3CCOCC3)c3cnn(C4CCN(C(=O)c5cccc(Cl)c5)CC4)c3n2)cc1 [Example 358, 1-(4-{1-[1-(3-chlorobenzoyl)piperidin-4-yl]-4-morpholin-4-yl-1H-pyrazolo[3,4-d]pyrimidin-6-yl}phenyl)-3-methylurea] | 7.28 | 7.57 | 7.00 |
| CNC(=O)Nc1ccc(-c2nc(N3CCOCC3)c3cnn(C4CCN(C(=O)c5cccc(C(F)(F)F)c5)CC4)c3n2)cc1 [Example 359, 1-methyl-3-[4-(4-morpholin-4-yl-1-{1-[3-(trifluoromethyl)benzoyl]piperidin-4-yl}-1H-pyrazolo[3,4-d]pyrimidin-6-yl)phenyl]urea] | 7.12 | 7.35 | 6.70 |
| CNC(=O)Nc1ccc(-c2nc(N3CCOCC3)c3cnn(C4CCN(C(=O)c5ccc(F)cc5)CC4)c3n2)cc1 [Example 361, 1-(4-{1-[1-(4-fluorobenzoyl)piperidin-4-yl]-4-morpholin-4-yl-1H-pyrazolo[3,4-d]pyrimidin-6-yl}phenyl)-3-methylurea] | 6.97 | 7.57 | 7.00 |
| CNC(=O)Nc1ccc(-c2nc(N3CCOCC3)c3cnn(C4CCN(C(=O)c5ccc(OC)cc5)CC4)c3n2)cc1 [Example 363, 1-(4-{1-[1-(4-methoxybenzoyl)piperidin-4-yl]-4-morpholin-4-yl-1H-pyrazolo[3,4-d]pyrimidin-6-yl}phenyl)-3-methylurea] | 7.26 | 7.35 | 6.40 |
| CNC(=O)Nc1ccc(-c2nc(N3CCOCC3)c3cnn(C4CCN(C(=O)c5cccc(OC)c5)CC4)c3n2)cc1 [Example 364, 1-(4-{1-[1-(3-methoxybenzoyl)piperidin-4-yl]-4-morpholin-4-yl-1H-pyrazolo[3,4-d]pyrimidin-6-yl}phenyl)-3-methylurea] | 7.12 | 7.46 | 6.52 |
| CNC(=O)Nc1ccc(-c2nc(N3CCOCC3)c3cnn(C4CCN(C(=O)c5ccccc5OC)CC4)c3n2)cc1 [Example 365, 1-(4-{1-[1-(2-methoxybenzoyl)piperidin-4-yl]-4-morpholin-4-yl-1H-pyrazolo[3,4-d]pyrimidin-6-yl}phenyl)-3-methylurea] | 7.09 | 7.57 | 6.52 |
| CNC(=O)Nc1ccc(-c2nc(N3CCOCC3)c3cnn(C4CCN(C(=O)c5ccc(C#N)cc5)CC4)c3n2)cc1 [Example 368, 1-(4-{1-[1-(4-cyanobenzoyl)piperidin-4-yl]-4-morpholin-4-yl-1H-pyrazolo[3,4-d]pyrimidin-6-yl}phenyl)-3-methylurea] | 7.05 | 6.82 | 6.70 |

Now those with a higher pIC50 [1], led by results:

| pIC50 [1] | pIC50 [2] | SMILES | pIC50 [3] |
| --- | --- | --- | --- |
| 7.64 | 7.57 | CNC(=O)Nc1ccc(-c2nc(N3CCOCC3)c3cnn(C4CCN(CC(=O)c5ccccc5)CC4)c3n2)cc1 [Example 333, 1-methyl-3-(4-{4-morpholin-4-yl-1-[1-(2-oxo-2-phenylethyl)piperidin-4-yl]-1H-pyrazolo[3,4-d]pyrimidin-6-yl}phenyl)urea] | 6.70 |
| 7.52 | 5.52 | CNC(=O)Nc1ccc(-c2nc(N3CCOCC3)c3cnn(C4CCN(C(=O)Nc5cccnc5)CC4)c3n2)cc1 [Example 335, 4-(6-{4-[(methylcarbamoyl)amino]phenyl}-4-morpholin-4-yl-1H-pyrazolo[3,4-d]pyrimidin-1-yl)-N-pyridin-3-ylpiperidine-1-carboxamide] | 5.60 |
| 7.64 | 6.30 | CNC(=O)Nc1ccc(-c2nc(N3CCOCC3)c3cnn(C4CCNCC4)c3n2)cc1 [Example 338, 1-methyl-3-[4-(4-morpholin-4-yl-1-piperidin-4-yl-1H-pyrazolo[3,4-d]pyrimidin-6-yl)phenyl]urea] | 5.89 |
| 7.96 | 7.51 | O=C(Nc1ccccc1)Nc1ccc(-c2nc(N3CCOCC3)c3cnn(C4CCN(Cc5cccnc5)CC4)c3n2)cc1 [Example 339, 1-(4-{4-morpholin-4-yl-1-[1-(pyridin-3-ylmethyl)piperidin-4-yl]-1H-pyrazolo[3,4-d]pyrimidin-6-yl}phenyl)-3-phenylurea] | 6.70 |
| 7.89 | 7.55 | O=C(Nc1ccncc1)Nc1ccc(-c2nc(N3CCOCC3)c3cnn(C4CCN(Cc5cccnc5)CC4)c3n2)cc1 [Example 340, 1-(4-{4-morpholin-4-yl-1-[1-(pyridin-3-ylmethyl)piperidin-4-yl]-1H-pyrazolo[3,4-d]pyrimidin-6-yl}phenyl)-3-pyridin-4-ylurea] | 7.00 |
| 7.54 | 5.92 | CNCCNC(=O)Nc1ccc(-c2nc(N3CCOCC3)c3cnn(C4CCN(Cc5cccnc5)CC4)c3n2)cc1 [Example 342, 1-[2-(methylamino)ethyl]-3-(4-{4-morpholin-4-yl-1-[1-(pyridin-3-ylmethyl)piperidin-4-yl]-1H-pyrazolo[3,4-d]pyrimidin-6-yl}phenyl)urea] | 5.96 |
| 7.39 | 7.15 | O=C(Nc1ccccc1)Nc1ccc(-c2nc(N3CCOCC3)c3cnn(C4CCN(Cc5cccnc5)CC4)c3n2)cc1F [Example 351, 1-(2-fluoro-4-{4-morpholin-4-yl-1-[1-(pyridin-3-ylmethyl)piperidin-4-yl]-1H-pyrazolo[3,4-d]pyrimidin-6-yl}phenyl)-3-phenylurea] | 6.40 |
| 7.46 | 7.28 | CNC(=O)Nc1ccc(-c2nc(N3CCOCC3)c3cnn(C4CCN(C(=O)c5ccc(Br)cc5)CC4)c3n2)cc1 [Example 360, 1-(4-{1-[1-(4-bromobenzoyl)piperidin-4-yl]-4-morpholin-4-yl-1H-pyrazolo[3,4-d]pyrimidin-6-yl}phenyl)-3-methylurea] | 6.70 |
| 7.38 | 7.28 | CNC(=O)Nc1ccc(-c2nc(N3CCOCC3)c3cnn(C4CCN(C(=O)c5ccc(Cl)cc5)CC4)c3n2)cc1 [Example 362, 1-(4-{1-[1-(4-chlorobenzoyl)piperidin-4-yl]-4-morpholin-4-yl-1H-pyrazolo[3,4-d]pyrimidin-6-yl}phenyl)-3-methylurea] | 6.40 |
| 7.37 | 7.57 | CNC(=O)Nc1ccc(-c2nc(N3CCOCC3)c3cnn(C4CCN(C(=O)c5ccc(C)cc5)CC4)c3n2)cc1 [Example 367, 1-methyl-3-(4-{1-[1-(4-methylbenzoyl)piperidin-4-yl]-4-morpholin-4-yl-1H-pyrazolo[3,4-d]pyrimidin-6-yl}phenyl)urea] | 7.00 |
